Data: publication PMC5207512, “Inhibition of Helicobacter pylori and Its Associated Urease by Palmatine: Investigation on the Potential Mechanism” (PLoS ONE, 2017)
≈ marks a conversion by molar mass, not a printed value. Where “and” joins values, the source holds several entries; their conditions need not be identical. Equal entries are not always repeated.

How the values were obtained:
H. pylori urease (HPU) = biological target: T1, H. pylori urease (HPU) (Helicobacter pylori, UniProt P69996); experiment: biochemical; type: biochemical; details: Fig 4C HPU; BA or NaF 5 mM preincubated 20 min, Pal 0.5 mM 20 min
T1 construct: HPU was prepared as previously described; made in house
Procedure: (§1) For the protection with inorganic compounds (BA and NaF), 0.25 mg/mL urease (HPU or JBU) was preincubated with 5 mM BA or 5 mM NaF for 20 min. Following preincubation, each sample of the protected urease was incubated with 0.5 mM Pal for 20 min. The samples containing a proper volume of respective buffer instead of Pal served as comparison with the abovementioned systems. The experiments were triply performed.

jack bean urease (JBU) = biological target: T2, jack bean urease (JBU) (Canavalia ensiformis, UniProt P07374); experiment: biochemical; type: biochemical; details: Fig 4D JBU; BA or NaF 5 mM preincubated 20 min, Pal 0.5 mM 20 min
T2 construct: Urease from jack bean (Canavalia ensiformis, JBU); purchased Sigma-Aldrich (St Louis, MO, USA) type III (catalogue number not given)
Procedure: as §1

JBU = test system: JBU; parameters: method as in PMID 26669678; details: cited from earlier work
HPU = test system: HPU; parameters: method as in PMID 26669678; details: cited from earlier work
[1] = parameters: method as in PMID 23159469; details: among berberine, coptisine, palmatine and epiberberine; in vitro and in vivo assays; cited from earlier work
H. pylori SS1 = experiment: MIC by agar dilution method; type: cell-based; details: Helicobacter pylori
Procedure: (§2) A total of four H. pylori strains were studied, including three reference strains ATCC 43504, NCTC 26695 and SS1 gifted from Professor Richard Ferrero, Monash University, Australia, and one clinical isolate ICDC 111001 obtained from Professor Zhang Jianzhong, Chinese Center of Disease Control and Prevention. […] The MICs of Pal against the four H. pylori strains were evaluated by using agar dilution method. […] H. pylori strains were harvested and resuspended in PBS (1.0–2.0 McFarland were defined based on the strain properties). […] After 72 h, the MIC values were determined as the lowest concentration at which there was no strain growth judged by visual examination. Metronidazole was used as the positive control. The experiments were evaluated under two different pH (7.4 and 5.3) conditions and repeated twice.

[2] = test system: H. pylori ICDC 111001 (clinical isolate); experiment: MIC by agar dilution method; type: cell-based; details: Helicobacter pylori
Procedure: as §2

H. pylori NCTC 26695 = experiment: MIC by agar dilution method; type: cell-based; details: Helicobacter pylori
Procedure: as §2

H. pylori ATCC 43504 = experiment: MIC by agar dilution method; type: cell-based; details: Helicobacter pylori
Procedure: as §2

T2 sequence (P07374 whole entry, looked up): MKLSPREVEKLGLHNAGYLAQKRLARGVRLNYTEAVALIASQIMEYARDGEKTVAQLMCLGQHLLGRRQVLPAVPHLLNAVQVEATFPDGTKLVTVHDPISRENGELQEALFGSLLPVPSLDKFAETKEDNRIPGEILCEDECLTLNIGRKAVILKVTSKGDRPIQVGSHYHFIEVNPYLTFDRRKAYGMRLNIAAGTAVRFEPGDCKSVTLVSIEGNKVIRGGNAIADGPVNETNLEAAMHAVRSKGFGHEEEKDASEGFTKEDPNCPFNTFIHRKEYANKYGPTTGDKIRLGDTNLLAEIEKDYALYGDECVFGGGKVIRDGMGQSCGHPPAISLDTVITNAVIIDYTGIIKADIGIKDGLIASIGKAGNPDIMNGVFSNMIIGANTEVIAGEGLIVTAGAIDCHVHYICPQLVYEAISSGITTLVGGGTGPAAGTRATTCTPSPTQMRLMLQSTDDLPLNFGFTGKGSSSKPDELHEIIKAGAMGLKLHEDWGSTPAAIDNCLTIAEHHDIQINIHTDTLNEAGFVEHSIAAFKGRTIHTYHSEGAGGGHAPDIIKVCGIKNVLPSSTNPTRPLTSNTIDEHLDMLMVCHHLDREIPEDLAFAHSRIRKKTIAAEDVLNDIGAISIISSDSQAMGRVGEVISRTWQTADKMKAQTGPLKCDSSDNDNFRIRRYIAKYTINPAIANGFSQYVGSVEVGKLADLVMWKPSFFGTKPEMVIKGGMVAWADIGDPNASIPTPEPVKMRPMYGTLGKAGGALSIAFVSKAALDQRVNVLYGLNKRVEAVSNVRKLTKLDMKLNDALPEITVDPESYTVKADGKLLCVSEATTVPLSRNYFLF
T1 sequence (P14916 whole entry): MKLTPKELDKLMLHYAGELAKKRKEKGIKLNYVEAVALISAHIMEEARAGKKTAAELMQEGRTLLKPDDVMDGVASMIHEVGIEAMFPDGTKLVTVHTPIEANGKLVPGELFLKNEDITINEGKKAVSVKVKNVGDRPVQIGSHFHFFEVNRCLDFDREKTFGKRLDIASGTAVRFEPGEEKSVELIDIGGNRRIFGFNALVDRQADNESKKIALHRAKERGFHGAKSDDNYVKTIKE
T1 sequence (P69996 whole entry): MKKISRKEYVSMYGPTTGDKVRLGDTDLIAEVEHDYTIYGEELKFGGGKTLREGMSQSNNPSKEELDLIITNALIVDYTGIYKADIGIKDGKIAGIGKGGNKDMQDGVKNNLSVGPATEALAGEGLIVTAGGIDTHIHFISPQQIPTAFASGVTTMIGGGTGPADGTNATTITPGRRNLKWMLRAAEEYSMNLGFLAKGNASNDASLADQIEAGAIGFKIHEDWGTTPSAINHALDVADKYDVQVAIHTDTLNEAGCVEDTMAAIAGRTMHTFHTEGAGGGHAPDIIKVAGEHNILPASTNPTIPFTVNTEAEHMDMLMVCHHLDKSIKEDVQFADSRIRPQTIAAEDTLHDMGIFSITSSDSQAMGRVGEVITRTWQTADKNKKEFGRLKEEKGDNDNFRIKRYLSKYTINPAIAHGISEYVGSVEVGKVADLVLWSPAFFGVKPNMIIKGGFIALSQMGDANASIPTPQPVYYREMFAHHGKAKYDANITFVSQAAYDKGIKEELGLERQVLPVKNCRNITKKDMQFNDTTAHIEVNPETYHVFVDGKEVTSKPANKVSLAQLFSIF

OB(O)O [BA, boric acid]
Residual urease activity (percent of control) (H. pylori urease (HPU)): 98.6% and 98.6098% and 99.1614% and 98.0689% | Residual urease activity (percent of control) (jack bean urease (JBU)): 86.6% and 87.7694% and 84.1052% and 87.7801%

[F-].[Na+] [NaF, sodium fluoride]
Residual urease activity (percent of control) (H. pylori urease (HPU)): 54.6% and 54.7779% and 54.0024% and 55.0707% | Residual urease activity (percent of control) (jack bean urease (JBU)): 42.9% and 43.7771% and 43.724% and 41.2392%

COc1ccc2cc3[n+](cc2c1OC)CCc1cc2c(cc1-3)OCO2 [berberine]
IC50 (JBU): > 13 mM | IC50 (HPU): 10.2 ± 1.1 mM | toxicity [1]: relatively more toxic

Cc1ncc([N+](=O)[O-])n1CCO [Met, Metronidazole]
MIC (H. pylori SS1; pH 5.3, 72 h): 0.5 µg/mL (≈ 2.92 µM) | MIC (H. pylori SS1; pH 7.4, 72 h): 0.5 µg/mL (≈ 2.92 µM) | MIC ([2]; pH 5.3, 72 h): 2 µg/mL (≈ 11.7 µM) | MIC ([2]; pH 7.4, 72 h): 2 µg/mL (≈ 11.7 µM) | MIC (H. pylori NCTC 26695; NCTC26695, pH 5.3, 72 h): 2 µg/mL (≈ 11.7 µM) | MIC (H. pylori NCTC 26695; NCTC26695, pH 7.4, 72 h): 2 µg/mL (≈ 11.7 µM) | MIC (H. pylori ATCC 43504; ATCC43504, pH 5.3, 72 h): 0.5 µg/mL (≈ 2.92 µM) | MIC (H. pylori ATCC 43504; ATCC43504, pH 7.4, 72 h): 0.5 µg/mL (≈ 2.92 µM)
